Laboratory results from ChEMBL document CHEMBL5247644, “Design and Synthesis of Sulfonium Derivatives: A Novel Class of α-Glucosidase Inhibitors with Potent In Vivo Antihyperglycemic Activities” (J Med Chem, 2023).
The source made the active and inactive calls. The calls are words filed in the database; no cut-off is given here.

Experiments:
[1] = biological target: T1, Sucrase-isomaltase, intestinal (Rattus norvegicus, UniProt P23739); experiment: Inhibition of sucrase in rat small intestinal brush border membrane vesicles using sucrose as substrate incubated for 30 mins by glucose-oxidase method; format: cell membranes, Small intestine, Membrane vesicle
T1 sequence (P23739 1-1013 limits assumed): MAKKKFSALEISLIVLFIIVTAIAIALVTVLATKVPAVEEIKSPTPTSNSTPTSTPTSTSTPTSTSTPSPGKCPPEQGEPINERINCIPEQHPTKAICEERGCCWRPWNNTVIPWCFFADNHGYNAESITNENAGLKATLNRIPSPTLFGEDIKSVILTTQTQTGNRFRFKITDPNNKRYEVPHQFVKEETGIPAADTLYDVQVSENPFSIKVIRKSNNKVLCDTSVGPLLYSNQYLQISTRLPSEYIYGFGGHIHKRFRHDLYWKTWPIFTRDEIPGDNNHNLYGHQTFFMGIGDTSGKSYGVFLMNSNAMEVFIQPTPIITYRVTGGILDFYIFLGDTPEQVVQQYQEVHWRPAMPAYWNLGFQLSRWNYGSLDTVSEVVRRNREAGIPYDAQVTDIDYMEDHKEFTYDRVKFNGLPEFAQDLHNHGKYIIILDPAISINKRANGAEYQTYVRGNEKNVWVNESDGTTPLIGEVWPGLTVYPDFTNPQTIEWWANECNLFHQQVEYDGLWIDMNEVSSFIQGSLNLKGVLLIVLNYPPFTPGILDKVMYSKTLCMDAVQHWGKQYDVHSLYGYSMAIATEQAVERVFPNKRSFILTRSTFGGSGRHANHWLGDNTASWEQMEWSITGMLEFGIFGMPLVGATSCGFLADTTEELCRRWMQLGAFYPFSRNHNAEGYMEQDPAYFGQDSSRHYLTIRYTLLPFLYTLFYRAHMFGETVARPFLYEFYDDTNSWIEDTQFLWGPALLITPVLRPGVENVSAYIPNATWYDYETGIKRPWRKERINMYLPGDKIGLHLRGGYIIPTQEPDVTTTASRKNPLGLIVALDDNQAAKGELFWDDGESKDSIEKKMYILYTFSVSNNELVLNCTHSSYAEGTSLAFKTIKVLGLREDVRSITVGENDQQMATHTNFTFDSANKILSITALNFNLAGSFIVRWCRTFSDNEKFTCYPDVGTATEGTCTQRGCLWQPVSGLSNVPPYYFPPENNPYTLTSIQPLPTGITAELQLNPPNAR
T1 sequence (P23739 1014-1841 limits assumed): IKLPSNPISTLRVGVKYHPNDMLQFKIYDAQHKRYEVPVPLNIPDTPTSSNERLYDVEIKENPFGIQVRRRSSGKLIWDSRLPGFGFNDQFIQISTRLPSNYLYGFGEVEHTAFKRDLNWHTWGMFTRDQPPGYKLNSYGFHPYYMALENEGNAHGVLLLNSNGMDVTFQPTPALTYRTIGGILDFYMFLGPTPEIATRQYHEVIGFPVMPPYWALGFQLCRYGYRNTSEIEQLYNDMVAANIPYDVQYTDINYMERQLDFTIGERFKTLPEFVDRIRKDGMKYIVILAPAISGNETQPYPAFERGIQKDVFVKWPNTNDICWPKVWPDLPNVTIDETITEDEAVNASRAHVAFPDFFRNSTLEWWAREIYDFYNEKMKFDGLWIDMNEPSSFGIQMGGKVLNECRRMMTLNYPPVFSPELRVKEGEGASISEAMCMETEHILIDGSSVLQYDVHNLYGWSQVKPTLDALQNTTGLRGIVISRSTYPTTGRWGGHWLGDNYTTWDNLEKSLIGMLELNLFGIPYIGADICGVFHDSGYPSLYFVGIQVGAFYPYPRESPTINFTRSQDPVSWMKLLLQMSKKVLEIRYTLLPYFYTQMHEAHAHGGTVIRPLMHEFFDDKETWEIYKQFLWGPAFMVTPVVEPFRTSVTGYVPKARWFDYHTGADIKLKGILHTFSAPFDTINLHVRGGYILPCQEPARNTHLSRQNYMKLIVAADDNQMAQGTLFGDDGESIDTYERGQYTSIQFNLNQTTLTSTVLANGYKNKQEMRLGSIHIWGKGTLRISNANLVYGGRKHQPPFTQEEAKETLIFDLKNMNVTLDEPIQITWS

[2] = Inhibition of maltase in rat small intestinal brush border membrane vesicles using maltose as substrate incubated for 30 mins by glucose-oxidase method; format: cell membranes, Small intestine, Membrane vesicle
Rattus norvegicus [3] = experiment: Antihyperglycemic activity in fasted rat assessed as decrease in blood glucose level at 1 mg/kg measured after 15 mins by maltose loading test relative to control; format: functional; design: scale not given: the % may be the effect or the level left; conditions: 0.25 h
Rattus norvegicus [4] = experiment: Antihyperglycemic activity in fasted rat assessed as decrease in blood glucose level at 1 mg/kg measured after 30 mins by maltose loading test relative to control; format: functional; design: scale not given: the % may be the effect or the level left; conditions: 0.5 h
Rattus norvegicus [5] = experiment: Antihyperglycemic activity in fasted rat assessed as decrease in blood glucose level at 1 mg/kg measured after 60 mins by maltose loading test relative to control; format: functional; design: scale not given: the % may be the effect or the level left
Rattus norvegicus [6] = experiment: Antihyperglycemic activity in fasted rat assessed as decrease in AUC of blood glucose level at 1 mg/kg measured for 15 to 60 mins by maltose loading test relative to control; format: functional; design: scale not given: the % may be the effect or the level left; conditions: time 15-60 min
[7] = biological target: T1, Sucrase-isomaltase, intestinal; experiment: Binding affinity to sucrase in rat small intestinal brush border membrane vesicles assessed as inhibition constant using sucrose as substrate incubated for 30 mins by glucose-oxidase method; format: cell membranes, Small intestine, Membrane vesicle
Mus musculus [8] = experiment: Antihyperglycemic activity in overnight fasted ICR mouse assessed as decrease in blood glucose level at 10 mg/kg, IG administered via tube and measured after 15 mins by sucrose loading test relative to control; format: functional; design: scale not given: the % may be the effect or the level left; conditions: 0.25 h
Mus musculus [9] = experiment: Antihyperglycemic activity in overnight fasted ICR mouse assessed as decrease in blood glucose level at 10 mg/kg, IG administered via tube and measured after 30 mins by sucrose loading test relative to control; format: functional; design: scale not given: the % may be the effect or the level left; conditions: 0.5 h
Mus musculus [10] = experiment: Antihyperglycemic activity in overnight fasted ICR mouse assessed as decrease in blood glucose level at 10 mg/kg, IG administered via tube and measured after 60 mins by sucrose loading test relative to control; format: functional; design: scale not given: the % may be the effect or the level left; conditions: 1 h
Mus musculus [11] = experiment: Antihyperglycemic activity in overnight fasted ICR mouse assessed as decrease in AUC of blood glucose level at 10 mg/kg, IG administered via tube and measured after 15 to 60 mins by sucrose loading test relative to control; format: functional; design: scale not given: the % may be the effect or the level left; conditions: time 15-60 min
Mus musculus [12] = experiment: Antihyperglycemic activity in overnight fasted ICR mouse assessed as decrease in blood glucose level at 1 mg/kg, IG administered via tube and measured after 15 mins by sucrose loading test relative to control; format: functional; design: scale not given: the % may be the effect or the level left; conditions: 0.25 h
Mus musculus [13] = experiment: Antihyperglycemic activity in overnight fasted ICR mouse assessed as decrease in blood glucose level at 1 mg/kg, IG administered via tube and measured after 30 mins by sucrose loading test relative to control; format: functional; design: scale not given: the % may be the effect or the level left; conditions: 0.5 h
Mus musculus [14] = experiment: Antihyperglycemic activity in overnight fasted ICR mouse assessed as decrease in blood glucose level at 1 mg/kg, IG administered via tube and measured after 60 mins by sucrose loading test relative to control; format: functional; design: scale not given: the % may be the effect or the level left
Mus musculus [15] = experiment: Antihyperglycemic activity in overnight fasted ICR mouse assessed as decrease in AUC of blood glucose level at 1 mg/kg, IG administered via tube and measured after 15 to 60 mins by sucrose loading test relative to control; format: functional; design: scale not given: the % may be the effect or the level left; conditions: time 15-60 min
[16] = biological target: Lysosomal alpha-glucosidase (Rattus norvegicus) (UniProt Q6P7A9); experiment: Potency index, ratio of neoponkoranol IC50 to test compound IC50 for inhibition of maltase in rat small intestinal brush border membrane vesicles using maltose as substrate incubated for 30 mins by glucose-oxidase method; format: cell membranes; conditions: Small intestine, Membrane vesicle
Lysosomal alpha-glucosidase (Rattus norvegicus), sequence (Q6P7A9 whole entry): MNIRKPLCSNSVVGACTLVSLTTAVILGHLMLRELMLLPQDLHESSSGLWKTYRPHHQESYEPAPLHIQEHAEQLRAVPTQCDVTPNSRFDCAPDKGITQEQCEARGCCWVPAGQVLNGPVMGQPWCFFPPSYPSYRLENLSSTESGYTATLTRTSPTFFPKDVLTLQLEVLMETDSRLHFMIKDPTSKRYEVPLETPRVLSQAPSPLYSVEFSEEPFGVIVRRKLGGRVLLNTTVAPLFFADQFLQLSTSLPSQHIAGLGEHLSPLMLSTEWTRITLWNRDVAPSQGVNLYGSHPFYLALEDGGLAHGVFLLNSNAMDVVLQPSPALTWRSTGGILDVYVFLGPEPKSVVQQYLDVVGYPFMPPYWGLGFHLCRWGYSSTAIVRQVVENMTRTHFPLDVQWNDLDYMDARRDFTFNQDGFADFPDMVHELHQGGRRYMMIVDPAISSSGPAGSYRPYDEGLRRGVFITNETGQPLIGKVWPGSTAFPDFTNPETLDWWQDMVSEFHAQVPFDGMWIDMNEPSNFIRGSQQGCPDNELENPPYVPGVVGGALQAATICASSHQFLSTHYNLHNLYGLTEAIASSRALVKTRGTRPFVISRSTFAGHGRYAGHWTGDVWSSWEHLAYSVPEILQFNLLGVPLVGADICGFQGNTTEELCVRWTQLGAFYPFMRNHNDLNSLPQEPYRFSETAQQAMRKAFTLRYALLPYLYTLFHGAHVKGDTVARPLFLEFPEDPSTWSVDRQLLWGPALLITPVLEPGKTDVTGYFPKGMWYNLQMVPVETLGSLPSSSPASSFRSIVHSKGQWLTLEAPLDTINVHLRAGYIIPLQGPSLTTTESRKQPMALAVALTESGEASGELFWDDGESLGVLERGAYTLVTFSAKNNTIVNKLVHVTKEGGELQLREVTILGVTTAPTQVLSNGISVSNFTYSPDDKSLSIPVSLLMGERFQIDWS

[17] = biological target: Sucrase-isomaltase, intestinal (Rattus norvegicus) (UniProt P23739); experiment: Competitive inhibition of sucrase in rat small intestinal brush border membrane vesicles using sucrose as substrate incubated for 30 mins by Lineweaver-Burk plot analysis; format: cell membranes; conditions: Small intestine, Membrane vesicle
Sucrase-isomaltase, intestinal (Rattus norvegicus), sequence (P23739 1-1013 limits assumed): as the sequence (P23739 1-1013 limits assumed) above
Sucrase-isomaltase, intestinal (Rattus norvegicus), sequence (P23739 1014-1841 limits assumed): as the sequence (P23739 1014-1841 limits assumed) above

[18] = biological target: Lysosomal alpha-glucosidase (Rattus norvegicus) (UniProt Q6P7A9); experiment: Competitive inhibition of maltase in rat small intestinal brush border membrane vesicles using maltose as substrate incubated for 30 mins by Lineweaver-Burk plot analysis; format: cell membranes; conditions: Small intestine, Membrane vesicle
Mus musculus [19] = experiment: Antihyperglycemic activity in overnight fasted ICR mouse assessed as decrease in blood glucose level at 20 mg/kg, IG administered via tube and measured after 15 mins by sucrose loading test relative to control; format: functional; design: scale not given: the % may be the effect or the level left; conditions: 0.25 h
Mus musculus [20] = experiment: Antihyperglycemic activity in overnight fasted ICR mouse assessed as decrease in blood glucose level at 20 mg/kg, IG administered via tube and measured after 30 mins by sucrose loading test relative to control; format: functional; design: scale not given: the % may be the effect or the level left; conditions: 0.5 h
Mus musculus [21] = experiment: Antihyperglycemic activity in overnight fasted ICR mouse assessed as decrease in blood glucose level at 20 mg/kg, IG administered via tube and measured after 60 mins by sucrose loading test relative to control; format: functional; design: scale not given: the % may be the effect or the level left; conditions: 1 h
Mus musculus [22] = experiment: Antihyperglycemic activity in overnight fasted ICR mouse assessed as decrease in AUC of blood glucose level at 20 mg/kg, IG administered via tube and measured after 15 to 60 mins by sucrose loading test relative to control; format: functional; design: scale not given: the % may be the effect or the level left; conditions: time 15-60 min
[23] = biological target: Sucrase-isomaltase, intestinal (Rattus norvegicus) (UniProt P23739); experiment: Potency index, ratio of neoponkoranol IC50 to test compound IC50 for inhibition of sucrase in rat small intestinal brush border membrane vesicles using sucrose as substrate incubated for 30 mins by glucose-oxidase method; format: cell membranes; conditions: Small intestine, Membrane vesicle
[24] = biological target: Lysosomal alpha-glucosidase (Rattus norvegicus) (UniProt Q6P7A9); experiment: Potency index, ratio of voglibose IC50 to test compound IC50 for inhibition of maltase in rat small intestinal brush border membrane vesicles using maltose as substrate incubated for 30 mins by glucose-oxidase method; format: cell membranes; conditions: Small intestine, Membrane vesicle
[25] = biological target: Lysosomal alpha-glucosidase (Rattus norvegicus) (UniProt Q6P7A9); experiment: Potency index, ratio of acarbose IC50 to test compound IC50 for inhibition of maltase in rat small intestinal brush border membrane vesicles using maltose as substrate incubated for 30 mins by glucose-oxidase method; format: cell membranes; conditions: Small intestine, Membrane vesicle

O=[N+]([O-])c1ccc(C2OC[C@@H](O)[C@@H]([C@H](O)C[S@+]3C[C@@H](O)[C@H](O)[C@H]3CO)O2)cc1 (stereo partly drawn)
IC50 [1]: 4700 nM | IC50 [2]: 4500 nM

OCC(CO)N[C@H]1C[C@](O)(CO)[C@@H](O)[C@H](O)[C@H]1O [VOGLIBOSE]
Activity (Rattus norvegicus [3]): 50% | Activity (Rattus norvegicus [4]): 55.1% | Activity (Rattus norvegicus [5]): 43.3% | Activity (Rattus norvegicus [6]): 41.1%

OC[C@@H]1[C@@H](O)[C@H](O)C[S@@+]1C[C@@H](O)[C@H]1OC(c2cccc(Cl)c2)OC[C@H]1O (stereo partly drawn)
IC50 [1]: 1900 nM | IC50 [2]: 3100 nM

OC[C@@H]1[C@@H](O)[C@H](O)C[S@@+]1C[C@@H](O)[C@H]1OC(c2ccccc2Cl)OC[C@H]1O (stereo partly drawn)
IC50 [1]: 540 nM | IC50 [2]: 410 nM | Ki [7]: 474 nM

OC[C@@H]1[C@@H](O)[C@H](O)C[S@@+]1C[C@@H](O)[C@H]1OC(c2ccccc2F)OC[C@H]1O (stereo partly drawn)
IC50 [1]: 400 nM | IC50 [2]: 840 nM | Ki [7]: 562 nM

OC[C@@H]1[C@@H](O)[C@H](O)C[S@@+]1C[C@@H](O)[C@H]1OC(c2cccc(F)c2)OC[C@H]1O (stereo partly drawn)
IC50 [1]: 700 nM | IC50 [2]: 1700 nM

OC[C@@H]1[C@@H](O)[C@H](O)C[S@@+]1C[C@@H](O)[C@H]1OC(c2ccccc2C(F)(F)F)OC[C@H]1O.[Cl-] (stereo partly drawn)
IC50 [1]: 220 nM | IC50 [2]: 230 nM | Ki [7]: 398 nM | Activity (Mus musculus [8]): 43.5% | Activity (Mus musculus [9]): 56.6% | Activity (Mus musculus [10]): 51% | Activity (Mus musculus [11]): 45.8% | Activity (Mus musculus [12]): 35.1% | Activity (Mus musculus [13]): 47.3% | Activity (Mus musculus [14]): 37.8% | Activity (Mus musculus [15]): 34% | Activity (Rattus norvegicus [3]): 45.7% | Activity (Rattus norvegicus [4]): 48.7% | Activity (Rattus norvegicus [5]): 43.2% | Activity (Rattus norvegicus [6]): 39.7% | Ratio IC50 [16]: 40 | inhibition [17]: Active | inhibition [18]: Active

OC[C@@H]1[C@@H](O)[C@H](O)C[S@@+]1C[C@@H](O)[C@H]1OC(c2ccc(Cl)cc2)OC[C@H]1O (stereo partly drawn)
IC50 [1]: 2300 nM | IC50 [2]: 4000 nM

OC[C@@H]1[C@@H](O)[C@H](O)C[S@@+]1C[C@@H](O)[C@@H](O)[C@@H](O)[C@@H](O)CO
IC50 [1]: 1900 nM | IC50 [2]: 7800 nM | Activity (Mus musculus [8]): 37.5% | Activity (Mus musculus [9]): 48.3% | Activity (Mus musculus [10]): 45.1% | Activity (Mus musculus [11]): 40% | Activity (Mus musculus [12]): 27.8% | Activity (Mus musculus [13]): 39.6% | Activity (Mus musculus [14]): 35.3% | Activity (Mus musculus [15]): 29.6% | Activity (Rattus norvegicus [3]): 35.3% | Activity (Rattus norvegicus [4]): 34.5% | Activity (Rattus norvegicus [5]): 19.8% | Activity (Rattus norvegicus [6]): 23%

OC[C@@H]1[C@@H](O)[C@H](O)C[S@@+]1C[C@@H](O)[C@H]1OC(c2ccc(C(F)(F)F)cc2)OC[C@H]1O (stereo partly drawn)
IC50 [1]: 2300 nM | IC50 [2]: 3500 nM

C[C@H]1O[C@H](O[C@H]2[C@H](O)[C@@H](O)[C@@H](O[C@H]3[C@H](O)[C@@H](O)C(O)O[C@@H]3CO)O[C@@H]2CO)[C@H](O)[C@@H](O)[C@@H]1N[C@H]1C=C(CO)[C@@H](O)[C@H](O)[C@H]1O (stereo partly drawn) [ACARBOSE]
Activity (Mus musculus [19]): 40.2% | Activity (Mus musculus [20]): 50.9% | Activity (Mus musculus [21]): 45.1% | Activity (Mus musculus [22]): 40%

O=[N+]([O-])c1cccc(C2OC[C@@H](O)[C@@H]([C@H](O)C[S@+]3C[C@@H](O)[C@H](O)[C@H]3CO)O2)c1 (stereo partly drawn)
IC50 [1]: 3400 nM | IC50 [2]: 6700 nM

OC[C@@H]1[C@@H](O)[C@H](O)C[S@@+]1C[C@@H](O)[C@H]1OC(c2ccc(F)cc2)OC[C@H]1O (stereo partly drawn)
IC50 [1]: 2500 nM | IC50 [2]: 3000 nM

Cl.O=[N+]([O-])c1ccccc1C1OC[C@@H](O)[C@@H]([C@H](O)C[S@+]2C[C@@H](O)[C@H](O)[C@H]2CO)O1 (stereo partly drawn)
IC50 [1]: 100 nM | IC50 [2]: 200 nM | Ki [7]: 352 nM | Activity (Mus musculus [8]): 49% | Activity (Mus musculus [9]): 60% | Activity (Mus musculus [10]): 54.6% | Activity (Mus musculus [11]): 50.1% | Activity (Mus musculus [12]): 41.1% | Activity (Mus musculus [13]): 48% | Activity (Mus musculus [14]): 43.9% | Activity (Mus musculus [15]): 38.1% | Activity (Rattus norvegicus [3]): 50% | Activity (Rattus norvegicus [4]): 54.6% | Activity (Rattus norvegicus [5]): 48.3% | Activity (Rattus norvegicus [6]): 45.6% | Ratio IC50 [23]: 20 | Ratio IC50 [16]: 40 | Ratio IC50 [24]: 7.5 | Ratio IC50 [25]: 16 | inhibition [17]: Active | inhibition [18]: Active

OC[C@@H]1[C@@H](O)[C@H](O)C[S@@+]1C[C@@H](O)[C@H]1OC(c2cccc(C(F)(F)F)c2)OC[C@H]1O (stereo partly drawn)
IC50 [1]: 300 nM | IC50 [2]: 1500 nM

OC[C@@H]1[C@@H](O)[C@H](O)C[S@@+]1C[C@@H](O)[C@H]1OC(c2ccccc2)OC[C@H]1O (stereo partly drawn)
IC50 [1]: 420 nM | IC50 [2]: 830 nM | Ki [7]: 758 nM | Ratio IC50 [23]: 5 | Ratio IC50 [16]: 10
